In patent US20250026759A1 (Merck Sharp & Dohme LLC, priority 2023, published 2025) one finds EC50 data, which are given here for 30 compounds.

The structures appear in SMILES notation. Like-named read-outs stand apart in the source and are kept apart here.

In this assay the test system is PBMCs infected with VSV-G pseudotyped HIV virus (VSV-G/pNLG1-P2A-ΔEnv). Nature of the assay: cells. In kind it is cell-based, human. Conditions: read-out: TACK EC50.

By EC50 is commonly meant the concentration giving half of the maximal effect. As to `CC(F)(F)[C@@]1(C#CC2CC2)NC(=O)Nc2cc(Cn3ccc(CO)n3)c(F)cc21` [Example 2, (S)-4-(cyclopropylethynyl)-4-(1,1-difluoroethyl)-6-fluoro-7-((3-(hydroxymethyl)-1H-pyrazol-1-yl)methyl)-3,4-dihydroquinazolin-2(1H)-one], the half-maximal effective concentration (EC50) (Homo sapiens, PBMC) turned out to be 14.5 nM.

On to `CC(F)(F)[C@@]1(C#CC2CC2)NC(=O)Nc2cc(Cn3ncnc3N)c(F)cc21` (single isomer, unassigned) [Example 105], for which the 50% effective concentration (EC50) (Homo sapiens, PBMC) was 10.9 nM. As for `O=C1Nc2cc(Cn3cc4c(n3)CCOC4)c(F)cc2[C@@](C#CC2CC2)(C(F)(F)F)N1` (single isomer, unassigned) [Example 23], the half-maximal effective concentration (EC50) (Homo sapiens, PBMC) was determined as 21.2 nM. Same read-out and setting: for `Cc1cn(Cc2cc3c(cc2F)[C@@](C#CC2CC2)(C(C)(F)F)NC(=O)N3)nc1CO` [Example 68, (S)-4-(cyclopropylethynyl)-4-(1,1-difluoroethyl)-6-fluoro-7-((3-(hydroxymethyl)-4-methyl-1H-pyrazol-1-yl)methyl)-3,4-dihydroquinazolin-2(1H)-one] the value was 31 nM; for `O=C1Nc2cc(Cn3c(Cl)n[nH]c3=O)c(F)cc2[C@@](C#CC2CC2)(C(F)(F)F)N1` [Example 36, (S)-7-((3-chloro-5-oxo-1,5-dihydro-4H-1,2,4-triazol-4-yl)methyl)-4-(cyclopropylethynyl)-6-fluoro-4-(trifluoromethyl)-3,4-dihydroquinazolin-2(1H)-one], 13.3 nM. Take `O=C1Nc2cc(Cn3cn[nH]c3=O)c(F)cc2[C@@](C#CC2CC2)(C(F)(F)F)N1` [Example 34, (S)-4-(cyclopropylethynyl)-6-fluoro-7-((5-oxo-1,5-dihydro-4H-1,2,4-triazol-4-yl)methyl)-4-(trifluoromethyl)-3,4-dihydroquinazolin-2(1H)-one]: under “Homo sapiens, PBMC”, the EC50 turned out to be 44.6 nM.

For `CC(F)(F)[C@@]1(C#CC2CC2)NC(=O)Nc2cc(Cn3ccc(CCO)n3)c(F)cc21` [Example 47, (S)-4-(cyclopropylethynyl)-4-(1,1-difluoroethyl)-6-fluoro-7-((3-(2-hydroxyethyl)-1H-pyrazol-1-yl)methyl)-3,4-dihydroquinazolin-2(1H)-one], the 50% effective concentration (EC50) (Homo sapiens, PBMC) turned out to be 37.7 nM. With `NC(=O)c1nccn1Cc1cc2c(cc1F)[C@@](C#CC1CC1)(C(F)(F)C1CC1)NC(=O)N2` [Example 62, (S)-1-((4-(cyclopropyldifluoromethyl)-4-(cyclopropylethynyl)-6-fluoro-2-oxo-1,2,3,4-tetrahydroquinazolin-7-yl)methyl)-1H-imidazole-2-carboxamide], where the note is “Homo sapiens, PBMC”, the EC50 came out at 31.9 nM. `Cc1cn(Cc2cc3c(cc2F)[C@@](C#CC2CC2)(C(C)(F)F)NC(=O)N3)nc1N` [Example 45, (S)-7-((3-amino-4-methyl-1H-pyrazol-1-yl)methyl)-4-(cyclopropylethynyl)-4-(1,1-difluoroethyl)-6-fluoro-3,4-dihydroquinazolin-2(1H)-one]: the EC50 (Homo sapiens, PBMC) is 13.1 nM. In the case of `COc1nn(Cc2cc3c(cc2F)[C@@](C#CC2CC2)(C(C)(F)F)NC(=O)N3)cc1Cl` [Example 95, (S)-7-((4-chloro-3-methoxy-1H-pyrazol-1-yl)methyl)-4-(cyclopropylethynyl)-4-(1,1-difluoroethyl)-6-fluoro-3,4-dihydroquinazolin-2(1H)-one], the EC50 (Homo sapiens, PBMC) was 24.1 nM.

On to `CN1C(=O)NC(=O)C1Cc1cc2c(cc1F)[C@@](C#CC1CC1)(C(C)(F)F)NC(=O)N2` (single isomer, unassigned) [Example 125, (R or S)-5-(((S)-4-(cyclopropylethynyl)-4-(1,1-difluoroethyl)-6-fluoro-2-oxo-1,2,3,4-tetrahydroquinazolin-7-yl)methyl)-1-methylimidazolidine-2,4-dione], for which the 50% effective concentration (EC50) was found to be 111 nM. Take `Cc1ccn(Cc2ccc3c(c2)NC(=O)N[C@]3(C#CC2CC2)C(F)(F)F)n1` [Example 127, (S)-4-(cyclopropylethynyl)-7-((3-methyl-1H-pyrazol-1-yl)methyl)-4-(trifluoromethyl)-3,4-dihydroquinazolin-2(1H)-one]: the EC50 (Homo sapiens, PBMC) came to 103 nM. Still for that read-out and setting: for `CC(F)(F)[C@@]1(C#CC2CC2)NC(=O)Nc2cc(Cn3cnc4ccccc43)c(F)cc21` [Example 94, (S)-7-((1H-benzo[d]imidazol-1-yl)methyl)-4-(cyclopropylethynyl)-4-(1,1-difluoroethyl)-6-fluoro-3,4-dihydroquinazolin-2(1H)-one] the value was 44.2 nM.

For the compound `Cn1ccc(-c2ccn(Cc3cc4c(cc3F)[C@@](C#CC3CC3)(C(C)(F)F)NC(=O)N4)n2)n1` [Example 53, (S)-4-(cyclopropylethynyl)-4-(1,1-difluoroethyl)-6-fluoro-7-((1′-methyl-1H,1′H-[3,3′-bipyrazol]-1-yl)methyl)-3,4-dihydroquinazolin-2(1H)-one], the EC50 (Homo sapiens, PBMC) is 28.3 nM. Same read-out and setting: for `COCc1nn(Cc2cc3c(cc2F)[C@@](C#CC2CC2)(C(C)(F)F)NC(=O)N3)cc1Cl` [Example 66, (S)-7-((4-chloro-3-(methoxymethyl)-1H-pyrazol-1-yl)methyl)-4-(cyclopropylethynyl)-4-(1,1-difluoroethyl)-6-fluoro-3,4-dihydroquinazolin-2(1H)-one] the value was 38.9 nM. For `CC(F)(F)[C@@]1(C#CC2CC2)NC(=O)Nc2cc(Cn3ccnc3)c(F)cc21` [Example 56, (S)-7-((1H-imidazol-1-yl)methyl)-4-(cyclopropylethynyl)-4-(1,1-difluoroethyl)-6-fluoro-3,4-dihydroquinazolin-2(1H)-one], the concentration for a half-maximal effect (EC50) (Homo sapiens, PBMC) was found to be 28 nM. On the same count and under the same terms, the same measure for `Cc1ccn(Cc2cc3c(cc2F)[C@@](C#CC2CC2)(C(F)(F)F)NC(=O)N3)n1` [Example 101, (S)-4-(cyclopropylethynyl)-6-fluoro-7-((3-methyl-1H-pyrazol-1-yl)methyl)-4-(trifluoromethyl)-3,4-dihydroquinazolin-2(1H)-one]: 13.8 nM; for `CN1CC(=O)N(Cc2cc3c(cc2F)[C@@](C#CC2CC2)(C(C)(F)F)NC(=O)N3)C1=O` [Example 110, (S)-3-((4-(cyclopropylethynyl)-4-(1,1-difluoroethyl)-6-fluoro-2-oxo-1,2,3,4-tetrahydroquinazolin-7-yl)methyl)-1-methylimidazolidine-2,4-dione]: 43.9 nM; for `CC(F)(F)[C@@]1(C#CC2CC2)NC(=O)Nc2cc(Cn3cnc(N)n3)c(F)cc21` [Example 106, (S)-7-((3-amino-1H-1,2,4-triazol-1-yl)methyl)-4-(cyclopropylethynyl)-4-(1,1-difluoroethyl)-6-fluoro-3,4-dihydroquinazolin-2(1H)-one]: 16.8 nM.

For the compound `Cc1n[nH]c(=O)n1Cc1cc2c(cc1F)[C@@](C#CC1CC1)(C(C)(F)F)NC(=O)N2` [Example 38, (S)-4-(cyclopropylethynyl)-4-(1,1-difluoroethyl)-6-fluoro-7-((3-methyl-5-oxo-1,5-dihydro-4H-1,2,4-triazol-4-yl)methyl)-3,4-dihydroquinazolin-2(1H)-one], the EC50 (Homo sapiens, PBMC) stood at 23 nM. For the compound `O=C1Nc2cc(CNC(=O)c3ncc[nH]3)c(F)cc2[C@@](C#CC2CC2)(C(F)(F)F)N1` [Example 80, (S)-N-((4-(cyclopropylethynyl)-6-fluoro-2-oxo-4-(trifluoromethyl)-1,2,3,4-tetrahydroquinazolin-7-yl)methyl)-1H-imidazole-2-carboxamide], the half-maximal effective concentration (EC50) (Homo sapiens, PBMC) is 9.8 nM.

With `Cc1nn(C)c(=O)n1Cc1cc2c(cc1F)[C@@](C#CC1CC1)(C(F)(F)F)NC(=O)N2` [Example 32, (S)-4-(cyclopropylethynyl)-7-((1,3-dimethyl-5-oxo-1,5-dihydro-4H-1,2,4-triazol-4-yl)methyl)-6-fluoro-4-(trifluoromethyl)-3,4-dihydroquinazolin-2(1H)-one], where the note is “Homo sapiens, PBMC”, the concentration giving a half-maximal response (EC50) amounted to 14.4 nM. Take `COc1nccn1Cc1cc2c(cc1F)[C@@](C#CC1CC1)(C(C)(F)F)NC(=O)N2` [Example 74, (S)-4-(cyclopropylethynyl)-4-(1,1-difluoroethyl)-6-fluoro-7-((2-methoxy-1H-imidazol-1-yl)methyl)-3,4-dihydroquinazolin-2(1H)-one]: the concentration giving a half-maximal response (EC50) (Homo sapiens, PBMC) came to 38.1 nM. Take `CN1CC(=O)N(Cc2cc3c(cc2F)[C@@](C#CC2CC2)(C(F)(F)F)NC(=O)N3)C1=O` [Example 9, (S)-3-((4-(cyclopropylethynyl)-6-fluoro-2-oxo-4-(trifluoromethyl)-1,2,3,4-tetrahydroquinazolin-7-yl)methyl)-1-methylimidazolidine-2,4-dione]: where the note is “Homo sapiens, PBMC”, the EC50 was 74.6 nM. Regarding `CC(F)(F)[C@@]1(C#CC2CC2)NC(=O)Nc2cc(Cn3cnc(C(N)=O)n3)c(F)cc21` (single isomer, unassigned) [Example 113], under “Homo sapiens, PBMC”, the half-maximal effective concentration (EC50) was determined as 51.2 nM. Regarding `CN(C)Cc1ccn(Cc2cc3c(cc2F)[C@@](C#CC2CC2)(C(C)(F)F)NC(=O)N3)n1` [Example 126, (S)-4-(cyclopropylethynyl)-4-(1,1-difluoroethyl)-7-((3-((dimethylamino)methyl)-1H-pyrazol-1-yl)methyl)-6-fluoro-3,4-dihydroquinazolin-2(1H)-one], where the note is “Homo sapiens, PBMC”, the EC50 is 101 nM.

As to `CN(C)c1ccn(Cc2cc3c(cc2F)[C@@](C#CC2CC2)(C(C)(F)F)NC(=O)N3)n1` [Example 76, (S)-4-(cyclopropylethynyl)-4-(1,1-difluoroethyl)-7-((3-(dimethylamino)-1H-pyrazol-1-yl)methyl)-6-fluoro-3,4-dihydroquinazolin-2(1H)-one], the 50% effective concentration (EC50) (Homo sapiens, PBMC) came to 60.4 nM. For `CC(F)(F)[C@@]1(C#CC2CC2)NC(=O)Nc2cc(Cn3ccc(C=O)n3)c(F)cc21` [Example 102, (S)-1-((4-(cyclopropylethynyl)-4-(1,1-difluoroethyl)-6-fluoro-2-oxo-1,2,3,4-tetrahydroquinazolin-7-yl)methyl)-1H-pyrazole-3-carbaldehyde], the EC50 (Homo sapiens, PBMC) was 26.8 nM.

As for `COCc1ncn(Cc2cc3c(cc2F)[C@@](C#CC2CC2)(C(C)(F)F)NC(=O)N3)n1` [Example 65, (S)-4-(cyclopropylethynyl)-4-(1,1-difluoroethyl)-6-fluoro-7-((3-(methoxymethyl)-1H-1,2,4-triazol-1-yl)methyl)-3,4-dihydroquinazolin-2(1H)-one], the EC50 (Homo sapiens, PBMC) is 38.1 nM. `CC(F)(F)[C@@]1(C#CC2CC2)NC(=O)Nc2cc(Cn3nc(CO)cc3Cl)c(F)cc21` [Example 69, (S)-7-((5-chloro-3-(hydroxymethyl)-1H-pyrazol-1-yl)methyl)-4-(cyclopropylethynyl)-4-(1,1-difluoroethyl)-6-fluoro-3,4-dihydroquinazolin-2(1H)-one]: the EC50 (Homo sapiens, PBMC) worked out at 29.8 nM.
